Assay results: patent US8222261B2, “Chemical compounds” (GlaxoSmithKline, LLC, priority 2006, dated 2012)

How the values were obtained:
C57BL/6 male mice = experiment: Effect of a GPR119 agonist on circulating GLP-1 and GIP in vivo in mice; conditions: fasted mice, 1, 3, 10, 30 or 60 mg/kg oral gavage, 60 min after dosing
Method: Ten weeks old C57BL/6 male mice (Taconic Farms, USA) were fasted overnight then randomly distributed into 6 treatment groups (n=10 mice per treatment group) receiving either vehicle (0.5% HPMC/0.1% Tween80), or a GPR119 agonist (Example 1) at five different doses (1, 3, 10, 30 or 60 mg/kg) by oral gavage. All animals were dosed with a volume of 10 mL/kg of their designated treatment. Sixty minutes after the oral gavage the mice were anesthetized using isofluorane for collection of blood samples by cardiac puncture. All mice were euthanized by cervical dislocation immediately following the cardiac puncture. […] Total GLP-1 levels were determined using a MULTI-ARRAY® electrochemoluminescence assay from Meso Scale Discovery (Cat #K110-FAC-2; Gaithersburg, Md.). Total GIP levels were determined using an ELISA assay (Cat# EZRMGIP-55K, Linco Diagnostic Services, St Charles, Mo.).
Data is represented as box plots summarizing the distribution of individual data point for each treatment group. […] FIG. 1 and FIG. 2 show total GLP-1 and total GIP respectively measured in circulation following administration of vehicle or a GPR119 agonist (Example 1) at doses as indicated.

Male Wistar rats = experiment: Glucose stimulated insulin secretion in rats, hyperglycemic clamp; assay type: in vivo
Method: Male Wistar rats (Taconic farms, USA), weighing 300-350 gram, had catheters surgically implanted into the jugular and femoral veins and allowed to recover for one week following the surgery. On the day before the experiment, food was removed in the afternoon for an overnight fast. The following morning animals were randomly assigned to three treatment groups, vehicle (n=19) and either 1 mg/kg (n=8) or 10 mg/kg (n=8) of a GPR119 agonist (Example 1), and baseline blood samples were collected from the jugular vein. Animals were then administered either vehicle or Example 1 by oral gavage. A second blood sample was collected approximately 90 minutes after the oral gavage immediately prior to starting the hyperglycemic clamp. The clamp was initiated by infusing an empirically determined glucose bolus over 15-30 seconds into the femoral vein, followed by a variable rate glucose infusion adjusted to achieve a stable plasma glucose level of 190-210 mg/dl. After infusion of the glucose bolus, blood samples were collected every 5 minutes for glucose measurements. Samples for C-peptide level were collected a 2, 5, 10, 15, 20, 25, 30, 46, 60, 90 and 120 minutes during the hyperglycemic clamp. C-peptide was measured as a surrogate for insulin as it is co-secreted with insulin in equimolar amount with lower hepatic clearance, thus a better reflection of insulin secretion from the pancreatic β-cells. All blood samples were placed in individual tubes containing a gel clot activator (Cat # T-MG, Terumo Medial Corporation, Elkton, Md.) and allowed to clot in room temperature for 20 min before centrifugation and collection of serum. Glucose levels were measured using an Olympus AU640 analyzer (Olympus America Inc, Melville, N.Y.), and C-peptide levels by an RIA (Linco Diagnostic services, St Charles, Mo.). The rats were sacrificed at the end of the study by an overdose of Nembutal.
There was no difference in plasma glucose levels between treatment groups. […] The characteristic biphasic insulin secretion response (measured as an increase in C-peptide levels) elicited by the rapid increase in plasma glucose levels is shown in FIG. 13, with the first phase occurring within the first 5 minutes and the second phase from 15 minutes and beyond.

Male Sprague-Dawley rats = experiment: Oral glucose tolerance in rats; assay type: in vivo; conditions: fasted rats, 10 mg/kg oral
Method: Eight weeks old male Sprague-Dawley rats had catheters surgically implanted into the jugular […] vein and allowed to recover for one week. Food was removed in the afternoon the day before the experiment to fast animals overnight. The following morning animals were randomly assigned to treatment groups to receive vehicle (n=7) (0.5% HPMC/0.1% Tween80), a GPR119 agonist (Example 1, 10 mg/kg) or a positive control (10 mg/kg), namely a DPPIV inhibitor as described above. Vehicle and compounds were delivered by oral gavage at a volume of […]. Two and a half hours after administration of vehicle or GPR119 agonist and one hour administration of DPPIV inhibitor, 2 g/kg dextrose was administered orally. […] The tubes were immediately centrifuged, plasma collected for subsequent measurement of glucose and hormone levels and stored at −80° C. Plasma glucose, insulin and total GLP-1 levels were measured as described above.
The data is represents as mean values±SEM from all animals within each treatment group.

Male Sprague Dawley rats = experiment: Whole body insulin sensitivity, euglycemic hyperinsulinemic clamp in rats; assay type: in vivo; conditions: 10 mg/kg oral
Method: Male Sprague Dawley rats, weighing at 300-350 gram, had catheters surgically implanted into the jugular and femoral veins and allowed to recover for one week following the surgery. On the day before the experiment, food was removed in the afternoon to fast the animals overnight. The following morning animals were randomly assigned to two treatment groups, vehicle (n=7) and or 10 mg/kg of a GPR119 agonist (Example 1, n=9). Blood samples were collected from the jugular vein for baseline glucose measurements prior to oral administration of the respective treatment. The euglycemic hyperinsulinemic clamp was initiated approximately 90 minutes following oral administration of the respective treatments, by starting the constant insulin infusion at a rate of 1 mU/kg/min human insulin (Humulin, Eli Lilly and Company, Indianapolis, Id.) into the femoral vein of conscious animals. Whole blood glucose levels were measured every 10 minutes throughout the clamp. As the plasma glucose levels began to fall exogenous glucose infusion was started at a variable rate adjusted to achieve a stable plasma glucose level of 90-100 mg/dl. The glucose infusion rate required to maintain euglycemia was recorded throughout the experiment for each animal, and represents a measure of insulin sensitivity. Plasma glucose and human insulin levels were measured at the end of the clamp (at 180 min) as described above. At the end of the study the rats were sacrificed by an overdose of Nembutal.
Data is represented as box plots summarizing the distribution of data for each treatment group, as described above. Horizontal lines represent the mean data. […] The data is represented as mean GIR±SEM. At steady state, 180 minutes after starting the clamp, the glucose infusion rate required to maintain euglycemia in Example 1 treated animals were three times that of vehicle treated animals.

[1] = rats, end of clamp (180 min), between treatment groups

## CC(C)OC(=O)N1CCC(Oc2ncnc3c2CCN3c2ccc(S(C)(=O)=O)cc2F)CC1 [Example 1, 1-Methylethyl 4-({7-[2-fluoro-4-(methylsulfonyl)phenyl]-6,7-dihydro-5H-pyrrolo[2,3-d]pyrimidin-4-yl}oxy)-1-piperidinecarboxylate]
C57BL/6 male mice
  circulating total GIP levels: dose dependent increase
  circulating total GLP-1 levels: dose dependent increase
Male Wistar rats; 10 mg/kg oral, compared to 1 mg/kg or vehicle
  glucose infusion rates (GIR) required to sustain the hyperglycemic clamp: required more exogenous glucose
Male Wistar rats; 10 mg/kg oral, compared to vehicle or 1 mg/kg, throughout the hyperglycemic clamp
  C-peptide levels (surrogate for insulin secretion): significantly increased
Male Wistar rats; 1 or 10 mg/kg oral vs vehicle, clamp started about 90 min after gavage
  plasma glucose levels achieved during the hyperglycemic clamp: no difference
Male Wistar rats; hyperglycemic clamp
  first (0-5 min) and second phase (15-90 min) glucose stimulated insulin secretory response: augments
Male Sprague-Dawley rats; Example 1 2.5 h and DPPIV inhibitor 1 h before 2 g/kg dextrose oral
  reduction of total glucose area under the curve (AUC): 38%
Male Sprague-Dawley rats; Example 1 2.5 h and DPPIV inhibitor 1 h before 2 g/kg dextrose oral, vs vehicle
  glucose excursion during the 120 minutes oral glucose tolerance test: significantly decreased
Male Sprague-Dawley rats; before the oral glucose load, compared to vehicle and DPPIV treated animals
  baseline total GLP-1: significantly increased
Male Sprague-Dawley rats; oral glucose tolerance test, between treatment groups
  Insulin AUC: not significantly different
Male Sprague-Dawley rats; oral glucose tolerance test, compared to vehicle and DPPIV treated animals
  total GLP-1 AUC: significantly increased
Male Sprague Dawley rats; normal rats, euglycemic hyperinsulinemic clamp
  whole body insulin sensitivity: enhances
Male Sprague Dawley rats; [1]
  euglycemia (plasma glucose at the end of the clamp): no significant difference
  steady state insulin exposure: no significant difference
Male Sprague Dawley rats; rats, steady state 180 minutes after starting the clamp, insulin 1 mU/kg/min
  glucose infusion rate required to maintain euglycemia, relative to vehicle: three times
